For one data set, the target named is T1, YciM (Salmonella enterica, UniProt Q7CQG6).
T1 sequence (Q7CQG6 23-389): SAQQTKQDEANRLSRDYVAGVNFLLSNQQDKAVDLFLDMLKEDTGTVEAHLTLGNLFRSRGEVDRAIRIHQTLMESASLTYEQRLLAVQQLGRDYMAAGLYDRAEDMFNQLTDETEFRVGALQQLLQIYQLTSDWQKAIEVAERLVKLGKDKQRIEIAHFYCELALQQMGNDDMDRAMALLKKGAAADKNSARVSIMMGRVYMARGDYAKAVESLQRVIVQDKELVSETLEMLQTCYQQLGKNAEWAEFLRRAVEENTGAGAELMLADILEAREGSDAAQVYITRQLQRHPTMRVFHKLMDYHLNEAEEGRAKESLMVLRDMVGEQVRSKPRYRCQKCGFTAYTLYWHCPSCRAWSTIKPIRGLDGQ
Put plainly: isothermal titration calorimetry, single-site fit. Format: binding. (In ITC the heat of successive injections is recorded.)

The data set “crystal structure” concerns the molecule itself. Put plainly: crystal structure.

On to `CCCCCCCCCCCC(O)CC(=O)O` (centres unmarked) [3-hydroxymyristic acid], for which the Kd (commonly the equilibrium constant for the complex coming apart) at YciM was determined as 1250 ± 880 nM.

B1: YciM cytoplasmic domain of S. typhimurium (domain or fragment, UniProt A0A0F6B1Z6 136-389, looked up)
chain: ETEFRVGALQQLLQIYQLTSDWQKAIEVAERLVKLGKDKQRIEIAHFYCELALQQMGNDDMDRAMALLKKGAAADKNSARVSIMMGRVYMARGDYAKAVESLQRVIVQDKELVSETLEMLQTCYQQLGKNAEWAEFLRRAVEENTGAGAELMLADILEAREGSDAAQVYITRQLQRHPTMRVFHKLMDYHLNEAEEGRAKESLMVLRDMVGEQVRSKPRYRCQKCGFTAYTLYWHCPSCRAWSTIKPIRGLDGQ
For B1, the binding result in the data set “crystal structure” is reported as “binds”.

Source of the values: article PMC9460159 (iScience, 2022).
